Assay results published in patent US20080171740A1, “Chemical Compounds” (SMITHKLINE BEECHAM CORPORATION, priority 2004, published 2008).
Where two headings read alike, the source gives them in different places.

Assays:
T-tropic HIV = settings: patients that are dual tropic or where only the T-tropic form is present; cited from earlier work
CXCR4 receptor = molecular target: T1, CXCR4 receptor (Homo sapiens, UniProt P61073); assay: Functional FLIPR assay (block of SDF-1 alpha induced [Ca2+]i change); type: cell-based; settings: HEK-293 cells with human CXCR4 BacMam and Gqi5 BacMam; antagonism of SDF-1 alpha; read-out: Functional assay (pIC50) (converted)
T1 construct: expressed in transfected cells; host or cells: HEK-293 cells (stably expressing human macrophage scavenging receptor) transduced with human CXCR4 BacMam and Gqi5 BacMam
T1 sequence (P61073 whole entry): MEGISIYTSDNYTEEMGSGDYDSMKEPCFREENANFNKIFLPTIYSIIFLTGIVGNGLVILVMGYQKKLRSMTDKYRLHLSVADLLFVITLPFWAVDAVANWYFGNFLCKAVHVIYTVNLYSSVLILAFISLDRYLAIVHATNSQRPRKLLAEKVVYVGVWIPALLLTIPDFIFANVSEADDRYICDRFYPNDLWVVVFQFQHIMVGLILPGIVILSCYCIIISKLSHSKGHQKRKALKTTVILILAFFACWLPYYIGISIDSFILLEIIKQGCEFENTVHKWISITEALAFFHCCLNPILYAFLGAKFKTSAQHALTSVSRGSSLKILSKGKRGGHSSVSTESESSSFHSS
Procedure: Human embryonic kidney (HEK-293) cells were maintained and harvested as described above. Cells were plated in 96-well, black clear bottom, poly-lysine coated plates at a concentration of 40,000 cells per well in a final volume of 100 ul containing human CXCR4 BacMam (MOI=25) and Gqi5 BacMam (MOI=12.5). The cells were incubated at 37° C., 5% CO2, 95% humidity for 24 h to allow for protein expression.
After the required incubation time the cells were washed once with 50 ul of fresh serum-free DMEM/F12 media containing probenicid. 50 ul of dye solution was then added to the cells (Calcium Plus Assay Kit Dye; Molecular Devices) was dissolved in 200 ml of the above probenicid/BSA containing media and incubated for 1 h. Cell plates were transferred to a Fluorometric Imaging Plate Reader (FLIPR). Upon addition the effect of the compounds on the change in [Ca^2+]i was examined to determine if the compounds were agonists or antagonists (ability to block SDF-1 alpha activity) at the CXCR4 receptor. IC50 values are determined and pKb values are calculated using the Leff and Dougall equation: KB=IC50/((2+([agonist]/EC50̂b)̂1/b -1) Where IC50 is that defined by the antagonist concentration-response curve [agonist] is the EC80 concentration of agonist used EC50 is that defined by the agonist concentration-response curve b is the slope of the agonist concentration-response curve.

[1] = tested on: HIV-1 gp160 (HXB2 strain) mediated fusion with HOS (hCXCR4/hCCR5/hCD4/pHIV-LTR-luciferase) cells; assay: Cell/cell fusion assay (HEK-293 expressing HIV-1 tat, rev, gp160 with HOS hCXCR4/hCCR5/hCD4/pHIV-LTR-luciferase cells); type: cell-based; settings: Homo sapiens, HEK293; luciferase readout after 24 h; read-out: Fusion assay (pIC50) (converted)
Text: The complete coding sequences of HIV-1 tat (GenBank Accession No. X07861) and rev (GenBank Accession No. M34378) were cloned into pcDNA3.1 expression vectors containing G418 and hygromycin resistance genes, respectively. The complete coding sequence of the HIV-1 (HXB2 strain) gp160 envelope gene (nucleotide bases 6225-8795 of GenBank Accession No. K03455) was cloned into plasmid pCRII-TOPO. The three HIV genes were additionally inserted into the baculovirus shuttle vector, pFastBacMam1, under the transcriptional control of the CMV promoter. A construction of the pHIV-I LTR containing mutated NFkB sequences linked to the luciferase reporter gene was prepared by digesting pcDNA3.1, containing the G418 resistance gene, with Nru I and Bam HI to remove the CMV promoter. LTR-luc was then cloned into the Nru I/Bam HI sites of the plasmid vector. Plasmid preparations were performed after the plasmids were amplified in Escherichia coli strain DH5-alpha. The fidelity of the inserted sequences was confirmed by double-strand nucleotide sequencing using an ABI Prism Model 377 automated sequencer.
Recombinant BacMam baculoviruses were constructed from pFastBacMam shuttle plasmids by using the bacterial cell-based Bac-to-Bac system. Viruses were propagated in Sf9 (Spodoptera frugiperda) cells cultured in Hink's TNM-FH Insect media supplemented with 10% (v/v) fetal bovine serum and 0.1% (v/v) pluronic F-68 according to established protocols.
Human osteosarcoma (HOS) cells that naturally express human CXCR4 were transfected with human CCR5, human CD4 and the pHIV-LTR-luciferase plasmid using FuGENE 6 transfection reagent. Single cells were isolated and grown under selection condition in order to generate a stable HOS (hCXCR4/hCCR5/hCD4/pHIV-LTR-luciferase) clonal cell line. The cells were maintained in Dulbeccos modified Eagles media supplemented with 10% fetal calf serum (FCS), G418 (400 ug/ml), puromycin (1 ug/ml), mycophenolic acid (40 ug/ml), xanthine (250 ug/ml) and hypoxanthine (13.5 ug/ml) to maintain a selection pressure for cells expressing the LTR-luciferase, hCCR5 and hCD4, respectively. Human embryonic kidney (HEK-293) cells stably transfected to express the human macrophage scavenging receptor (Class A, type 1; GenBank Accession No. D90187), were maintained in DMEM/F-12 media (1:1) supplemented with 10% FCS and 1.5 ug/ml puromycin. The expression of this receptor by the HEK-293 cells enhances their ability to stick to tissue culture treated plasticware.
HEK-293 cells were harvested using enzyme-free cell dissociation buffer. The cells were resuspended in DMEM/F-12 media supplemented with 10% FCS and 1.5 ug/ml and counted. Tranductions were performed by direct addition of BacMam baculovirus containing insect cell media to cells. The cells were simultaneously transduced with BacMam baculovirus expressing HIV-1 tat, HIV-1 rev and HIV-1 gp160 (from the HXB2 HIV strain). Routinely an MOI of 10 of each virus was added to the media containing the cells. 2 mM butyric acid was also added to the cells at this stage to increase protein expression in transduced cells. The cells were subsequently mixed and seeded into a flask at 30 million cells per T225. The cells were incubated at 37° C., 5% CO2, 95% humidity for 24 h to allow for protein expression.
HEK and HOS cells were harvested in DMEM/F-12 media containing 2% FCS and DMEM media containing 2% FCS, respectively, with no selection agents added. Compounds were plated as 1 ul spots in 100% DMSO on a 96-well CulturPlate plates. HOS cells (50 ul) were added first to the wells, followed immediately by the HEK cells (50 ul). The final concentration of each cell type was 20,000 cells per well. Following these additions, the cells were returned to a tissue culture incubator (37° C.; 5% CO2/95% air) for an additional 24 h.
Following the 24 h incubation, total cellular luciferase activity was measured using the LucLite Plus assay kit (Packard, Meridien, Conn.). […]

[2] = Compound cytotoxicity in the absence of virus (CellTiter-Glo); type: cell-based; settings: human; non-infected HOS cultures, cell viability; read-out: Cytotox (pIC50) (converted)
Procedure: Compounds were profiled against two HIV-1 viruses, the M-tropic (CCR5 utilizing) Ba-L strain and the T-tropic (CXCR4 utilizing) IIIB strain. Both viruses were propagated in human peripheral blood lymphocytes. Compounds were tested for there ability to block infection of the HOS cell line (expressing hCXCR4/hCCR5/hCD4/pHIV-LTR-luciferase) by either HIV-1 Ba-L or HIV-1 IIIB. Compound cytotoxicity was also examined in the absence of virus addition.
HOS cells (expressing hCXCR4/hCCR5/hCD4/pHIV-LTR-luciferase) were harvested and diluted in Dulbeccos modified Eagles media supplemented with 2% FCS and non-essential amino acid to a concentration of 60,000 cells/ml. The cells were plated into 96-well plates (100 ul per well) and the plates were placed in a tissue culture incubator (37° C.; 5% CO2/95% air) for a period of 24 h.
Subsequently, 50 ul of the desired drug solution (4 times the final concentration) was added to each well and the plates were returned to the tissue culture incubator (37° C.; 5% CO2/95% air) for 1 h. Following this incubation 50 ul of diluted virus was added to each well (approximately 2 million RLU per well of virus). The plates were returned to the tissue culture incubator (37° C.; 5% CO2/95% air) and were incubated for a further 96 h.
Following this incubation the endpoint for the virally infected cultures was quantified following addition of Steady-Glo Luciferase assay system reagent (Promega, Madison, Wis.). Cell viability or non-infected cultures was measured using a CellTiter-Glo luminescent cell viability assay system (Promega, Madison, Wis.). All luminescent readouts are performed on a Topcount luminescence detector (Packard, Meridien, Conn.).

[3] = tested on: HIV-1 IIIB strain, T-tropic (CXCR4 utilizing); assay: HOS HIV-1 infectivity assay; type: cell-based
Outline: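 Cells were plated and left 24 h, after which compound was added for 1 h. Virus at about 2 million RLU per well followed, with 96 h further incubation at 37 °C, 5% CO2. Luciferase activity was then measured with Steady-Glo, and uninfected-culture viability with CellTiter-Glo.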

[4] = Human immunodeficiency virus 1, IIIB, HOS HIV anti-infectivity assay, strain not named in Table 2, read-out: Activity Level
[5] = Human immunodeficiency virus 1, HOS cells, HIV-1 IIIB, 96 h, luciferase, read-out: HOS (3B)

Structure (SMILES)	T-tropic HIV viral load (T-tropic HIV)	IC50 (CXCR4 receptor) [nM]	IC50 [1] [nM]	IC50 at 96 h [2] [nM]	IC50 [3, 4] [nM]	IC50 [3, 5] [nM]
c1cc(CN2CCCNCCNCCCNCC2)ccc1CN1CCCNCCNCCCNCC1 [AMD-3100]	significantly reduce T-tropic HIV viral load	–	–	–	–	–
NCCCCN(Cc1cn2ccc(C(F)(F)F)cc2n1)C1CCCc2cccnc21 (stereo not shown) [Example 6, N-(5,6,7,8-Tetrahydro-8-quinolinyl)-N-{[7-(trifluoromethyl)imidazo[1,2-a]pyridin-2-yl]methyl}-1,4-butanediamine]	–	2190	4470	> 100000	500 to 10000	1400
NCCCCN(Cc1cn2c(F)cccc2n1)C1CCCc2cccnc21 (stereo not shown) [Example 14, N-[(5-Fluoroimidazo[1,2-a]pyridin-2-yl)methyl]-N-(5,6,7,8-tetrahydro-8-quinolinyl)-1,4-butanediamine]	–	100	407	> 100000	< 100	91
NCCCCN(Cc1cn2cc(Cl)ccc2n1)C1CCCc2cccnc21 (stereo not shown) [Example 10, N-[(6-Chloroimidazo[1,2-a]pyridin-2-yl)methyl]-N-(5,6,7,8-tetrahydro-8-quinolinyl)-1,4-butanediamine]	–	29.5	115	> 100000	< 100	41
